Columns and labels:
CDK4/D1 = CDK4/D1 (Homo sapiens, UniProt P11802); assay: ADP Glo Kinase assay CDK4/D1; assay type: biochemical; conditions: CDK4D1; for Ki: read-out: CDK inhibition, Ki (μM) CDK4D1; for remaining activity at 10 µM: compound at 10 μM, read-out: residual activity (%) at 10 μM CDK4D1
Procedure: (§1) Eurofins Pharma Discovery or Reaction Biology Corporation Kinase Profiler services were used to measure inhibition of CDKs and other kinases by radiometric assay. Inhibition of CDK4/D1, CDK6/D3 and CDK9/T1 were also determined in-house using ADP Glo Kinase assays (Promega Corporation, Madison, USA). Briefly, the kinase reaction for CDK4/D1 and CDK6/D3 was performed with kinase reaction buffer ([…] Tris base pH 7.5, 20 mM MgCl2, 0.4 mM DTT), 0.1 mg/ml BSA and RB-CTF substrate (retinoblastoma protein 1 C-terminal fraction). For CDK9/CyclinT1, the kinase reaction was performed with standard assay buffer and Kinase Dilution Buffer and RBER-IRStide substrate. Serial dilutions of 1:3 were prepared for test compounds for 10 concentrations (from 10 μM to 0.5 nM). The kinase reactions were started by addition of ATP, incubated for 40 min at 37° C. and then stopped by adding 10 μL of ADP Glo reagent. After incubation at room temperature in the dark for 40 min, 20 μL of kinase detection reagent was added per well and incubated for 40 min. Luminescence was measured using an EnVision Multilabel plate reader (PerkinElmer, Buckinghamshire, UK). Positive and negative controls were performed in the presence and absence of CDK kinases, respectively. Half-maximal inhibition (IC50) values were calculated using a 4-parameter logistic non-linear regression model with Graphpad prism (Version 6.0). Apparent inhibition constants (Ki) values were calculated from Km (ATP) and IC50 values for the respective kinases.

leukemia cell lines = assay: Resazurin cell viability assay on leukemia cell lines (72 h growth inhibition, GI50); assay type: cell-based; conditions: Homo sapiens, MV4-11 cells
Procedure: Compounds from Example 1 were subjected to a standard MTT (3-(4,5-dimethylthiazol-2-yl)-2,5-diphenyltetrazolium bromide) and resazurin assays on solid tumour cell lines and leukemia cell lines, respectively, as previously reported (Wang S et al., J Med Chem 47:1662-1675, 2004 and Diab S. et al. CheMedChem 9:962-972, 2014). Compound concentrations required to inhibit 50% of cell growth (GI50) were calculated using non-linear regression analysis.

CDKs and other kinases [1] = molecular target: T1, CDKs and other kinases (Homo sapiens, UniProt P06493); assay: Radiometric kinase assay (Eurofins Pharma Discovery or Reaction Biology Corporation Kinase Profiler); assay type: biochemical; conditions: CDK1B; for Ki: read-out: CDK inhibition, Ki (μM) CDK1B; for remaining activity at 10 µM: compound at 10 μM, read-out: residual activity (%) at 10 μM CDK1B
T1 construct: other: CDK1B; residual activity (%) at 10 μM CDK1B; compound at 10 μM
Procedure: as §1

CDKs and other kinases [2] = molecular target: T2, CDKs and other kinases (Homo sapiens, UniProt P24941); assay: as above; assay type: biochemical; conditions: CDK2A; for Ki: read-out: CDK inhibition, Ki (μM) CDK2A; for remaining activity at 10 µM: compound at 10 μM, read-out: residual activity (%) at 10 μM CDK2A
T2 construct: other: CDK2A; residual activity (%) at 10 μM CDK2A; compound at 10 μM
Procedure: as §1

CDKs and other kinases [3] = molecular target: T3, CDKs and other kinases (Homo sapiens, UniProt P50613); assay: as above; assay type: biochemical; conditions: CDK7H; for Ki: read-out: CDK inhibition, Ki (μM) CDK7H; for remaining activity at 10 µM: compound at 10 μM, read-out: residual activity (%) at 10 μM CDK7H
T3 construct: other: CDK7H; residual activity (%) at 10 μM CDK7H; compound at 10 μM
Procedure: as §1

CDK9/T1 = CDK9/T1 (Homo sapiens, UniProt P50750); assay: ADP Glo Kinase assay CDK9/T1; assay type: biochemical; conditions: CDK9T1; read-out: CDK inhibition, Ki (μM) CDK9T1
Procedure: as §1

CDK4/D1, sequence (P11802 whole entry): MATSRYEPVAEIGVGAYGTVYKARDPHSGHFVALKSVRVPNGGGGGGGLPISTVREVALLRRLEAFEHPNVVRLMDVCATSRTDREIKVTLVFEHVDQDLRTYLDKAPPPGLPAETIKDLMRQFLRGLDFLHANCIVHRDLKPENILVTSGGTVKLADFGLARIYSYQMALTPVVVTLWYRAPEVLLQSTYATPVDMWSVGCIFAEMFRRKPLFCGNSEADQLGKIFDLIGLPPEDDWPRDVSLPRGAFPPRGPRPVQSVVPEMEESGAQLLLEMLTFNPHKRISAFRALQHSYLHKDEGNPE
CDK4/D1, sequence (P24385 whole entry partner): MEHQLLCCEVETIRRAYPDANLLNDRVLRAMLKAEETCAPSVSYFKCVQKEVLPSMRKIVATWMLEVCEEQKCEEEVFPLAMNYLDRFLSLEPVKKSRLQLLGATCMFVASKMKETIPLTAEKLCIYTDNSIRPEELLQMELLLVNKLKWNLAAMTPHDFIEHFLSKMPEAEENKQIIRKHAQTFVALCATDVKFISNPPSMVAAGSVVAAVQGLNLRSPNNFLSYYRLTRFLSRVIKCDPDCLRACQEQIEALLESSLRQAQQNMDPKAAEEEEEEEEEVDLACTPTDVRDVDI
T1 sequence (P06493 whole entry): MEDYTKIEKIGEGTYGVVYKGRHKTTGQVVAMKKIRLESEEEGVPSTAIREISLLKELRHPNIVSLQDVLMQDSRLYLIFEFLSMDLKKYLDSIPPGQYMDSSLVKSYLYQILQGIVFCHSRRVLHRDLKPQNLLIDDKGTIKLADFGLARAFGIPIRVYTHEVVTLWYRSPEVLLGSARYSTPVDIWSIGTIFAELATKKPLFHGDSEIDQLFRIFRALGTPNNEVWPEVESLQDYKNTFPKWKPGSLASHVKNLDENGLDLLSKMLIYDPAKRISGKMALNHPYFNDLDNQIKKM
CDK9/T1, sequence (P50750 whole entry): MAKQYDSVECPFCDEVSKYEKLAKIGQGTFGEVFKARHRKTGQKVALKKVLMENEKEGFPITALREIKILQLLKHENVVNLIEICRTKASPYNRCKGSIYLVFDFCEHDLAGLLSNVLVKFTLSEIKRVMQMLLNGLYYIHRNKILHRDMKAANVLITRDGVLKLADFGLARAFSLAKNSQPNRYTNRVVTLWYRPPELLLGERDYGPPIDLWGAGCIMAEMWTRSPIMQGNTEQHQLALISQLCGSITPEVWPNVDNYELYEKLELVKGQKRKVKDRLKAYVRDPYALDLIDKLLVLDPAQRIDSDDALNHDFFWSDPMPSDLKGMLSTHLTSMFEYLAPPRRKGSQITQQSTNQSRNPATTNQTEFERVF
CDK9/T1, sequence (O60563 whole entry partner): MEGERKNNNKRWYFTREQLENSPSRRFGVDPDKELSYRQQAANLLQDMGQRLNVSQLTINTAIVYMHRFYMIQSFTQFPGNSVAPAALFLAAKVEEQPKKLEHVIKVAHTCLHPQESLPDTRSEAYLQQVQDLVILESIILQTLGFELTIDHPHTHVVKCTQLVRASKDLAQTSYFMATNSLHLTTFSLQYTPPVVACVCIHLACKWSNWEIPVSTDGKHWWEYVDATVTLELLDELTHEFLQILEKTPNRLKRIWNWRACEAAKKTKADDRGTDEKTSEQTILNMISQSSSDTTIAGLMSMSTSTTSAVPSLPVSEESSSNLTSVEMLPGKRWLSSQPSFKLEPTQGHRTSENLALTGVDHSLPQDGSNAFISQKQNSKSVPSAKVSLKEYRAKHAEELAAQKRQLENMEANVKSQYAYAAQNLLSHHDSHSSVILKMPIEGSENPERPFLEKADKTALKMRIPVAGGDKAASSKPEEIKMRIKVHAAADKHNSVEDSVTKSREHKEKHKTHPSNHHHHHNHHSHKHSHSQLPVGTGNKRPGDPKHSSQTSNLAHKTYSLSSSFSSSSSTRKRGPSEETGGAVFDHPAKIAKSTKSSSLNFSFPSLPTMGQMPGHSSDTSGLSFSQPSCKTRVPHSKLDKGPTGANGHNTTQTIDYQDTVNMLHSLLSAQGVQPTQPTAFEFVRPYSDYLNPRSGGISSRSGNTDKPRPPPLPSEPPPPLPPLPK
T3 sequence (P50613 whole entry): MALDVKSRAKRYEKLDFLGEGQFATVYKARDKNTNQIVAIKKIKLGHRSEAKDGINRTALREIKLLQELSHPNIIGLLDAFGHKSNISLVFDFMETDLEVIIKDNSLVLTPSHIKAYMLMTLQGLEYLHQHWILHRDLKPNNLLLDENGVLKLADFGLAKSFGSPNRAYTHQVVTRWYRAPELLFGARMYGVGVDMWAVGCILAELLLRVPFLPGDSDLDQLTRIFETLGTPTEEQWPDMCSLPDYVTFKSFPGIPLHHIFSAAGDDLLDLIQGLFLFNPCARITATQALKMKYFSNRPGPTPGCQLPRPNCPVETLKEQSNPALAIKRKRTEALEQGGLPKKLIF

Row | Structure (SMILES) | Ki (CDK4/D1) [µM] | GI50 (leukemia cell lines) [µM] | Ki (CDKs and other kinases [1]) [µM] | Ki (CDKs and other kinases [2]) [µM] | Ki (CDKs and other kinases [3]) [µM] | Ki (CDK9/T1) [µM] | remaining activity at 10 µM (CDK4/D1) [%] | remaining activity at 10 µM (CDKs and other kinases [1]) [%] | remaining activity at 10 µM (CDKs and other kinases [2]) [%] | remaining activity at 10 µM (CDKs and other kinases [3]) [%]
1 | CN1CCC(Nc2ncc(F)c(-c3cnc4ccccn34)n2)CC1 [Compound 19, 5-Fluoro-4-(imidazo[1,2-a]pyridin-3-yl)-N-(1-methylpiperidin-4-yl)pyrimidin-2-amine] | 0.004 | 0.084 ± 0.008 | 0.795 | 0.527 | 0.27 | 0.078 |  |  |  | 
2 | CC(C)(C)OC(=O)N1CCC(Nc2ncc(F)c(-c3cnc4ccccn34)n2)CC1 [Compound 20, tert-Butyl 4-((5-fluoro-4-(imidazo[1,2-a]pyridin-3-yl)pyrimidin-2-yl)amino)piperidine-1-carboxylate] |  | 0.092 ± 0.01 |  |  | 1.75 | 0.829 | 29 | 56 | 54 | 
3 | Fc1cnc(NC2CCNCC2)nc1-c1cnc2ccccn12 [Compound 21, 5-Fluoro-4-(imidazo[1,2-a]pyridin-3-yl)-N-(piperidin-4-yl)pyrimidin-2-amine] |  | 0.003 ± 0.001 | 0.479 | 0.321 | 0.6 | 0.069 | -11 |  |  | 
4 | COc1cnc(N[C@H]2CC[C@H](N)CC2)nc1-c1cnc2ccc(-c3ccccc3)cn12 [Compound 89, (1r,4r)-N^1-(5-Methoxy-4-(6-phenylimidazo[1,2-a]pyridin-3-yl)pyrimidin-2-yl)cyclohexane-1,4-diamine] |  | 0.003 ± 0.001 |  |  |  | 0.027 | 21 | 10 | 7 | 12
5 | Cc1cnc(NC2CCC(N(C)C)CC2)nc1-c1cnc2ccc(Nc3cncc(F)c3)cn12 (centres unmarked) [Compound 120, N^1-(4-(6-((5-Fluoropyridin-3-yl)amino)imidazo[1,2-a]pyridin-3-yl)-5-methylpyrimidin-2-yl)-N^4,N^4-dimethylcyclohexane-1,4-diamine] | 0.87 | 0.023 ± 0.01 |  |  |  | 0.015 |  | 31 | 4 | 29
6 | Cc1cnc(N2CCC3(CCNC3=O)CC2)nc1-c1cnc2ccccn12 [Compound 124, 8-(4-(Imidazo[1,2-a]pyridin-3-yl)-5-methylpyrimidin-2-yl)-2,8-diazaspiro[4.5]decan-1-one] |  | > 5 |  |  |  | > 5 |  | 87 | 34 | 91
7 | Cc1cnc(N[C@H]2CC[C@H](NS(C)(=O)=O)CC2)nc1-c1cnc2ccc(Nc3cncnc3)cn12 [Compound 126, N-((1r,4r)-4-((5-Methyl-4-(6-(pyrimidin-5-ylamino)imidazo[1,2-a]pyridin-3-yl)pyrimidin-2-yl)amino)cyclohexyl)methanesulfonamide] |  | > 5 |  | 0.089 |  | 0.111 | 14 | 2 |  | 94
8 | Cc1cnc(N[C@H]2CC[C@H](N)CC2)nc1-c1cnc2ccc(Nc3ccccn3)cn12 [Compound 128, (1r,4r)-N^1-(5-Methyl-4-(6-(pyridin-2-ylamino)imidazo [1,2-a]pyridin-3-yl)pyrimidin-2-yl)cyclohexane-1,4-diamine] |  | 0.068 ± 0.006 |  | 0.706 |  | 0.31 | 38 | 45 |  | 34
9 | COCCN[C@H]1CC[C@@H](Nc2ncc(C)c(-c3cnc4ccc(-c5ccccc5)cn34)n2)CC1 [Compound 130, (1s,4s)-N^1-(2-Methoxyethyl)-N^4-(5-methyl-4-(6-phenylimidazo[1,2-a]pyridin-3-yl)pyrimidin-2-yl) cyclohexane-1,4-diamine] |  | 0.172 ± 0.001 |  |  |  | 1.12 | 23 | 25 | 23 | 40
10 | Cc1cnc(N[C@H]2CC[C@H](N)CC2)nc1-c1cnc2cc(F)c(-c3ccccc3)cn12 [Compound 159, (1r,4r)-N^1-(4-(7-Fluoro-6-phenylimidazo[1,2-a]pyridin-3-yl)-5-methylpyrimidin-2-yl)cyclohexane-1,4-diamine] |  |  |  |  |  | 0.061 | 43 | 31 | 11 | 20

More lines, now with the values ahead:

Row | Ki (CDK4/D1) [µM] | GI50 (leukemia cell lines) [µM] | Ki (CDKs and other kinases [1]) [µM] | Ki (CDKs and other kinases [2]) [µM] | Ki (CDKs and other kinases [3]) [µM] | Ki (CDK9/T1) [µM] | remaining activity at 10 µM (CDK4/D1) [%] | remaining activity at 10 µM (CDKs and other kinases [1]) [%] | remaining activity at 10 µM (CDKs and other kinases [2]) [%] | remaining activity at 10 µM (CDKs and other kinases [3]) [%] | Structure (SMILES)
11 |  | 0.132 ± 0.059 |  |  |  | 0.32 | 24 | 29 | 44 | 20 | CCN[C@H]1CC[C@H](Nc2ncc(C)c(-c3cnc4ccc(-c5ccccc5)cn34)n2)CC1 [Compound 131, (1r,4r)-N^1-Ethyl-N^4-(5-methyl-4-(6-phenylimidazo[1,2-a]pyridin-3-yl)pyrimidin-2-yl)cyclohexane-1,4-diamine]
12 |  | 0.012 ± 0.008 |  |  |  | 1.12 | 16 | 25 | 23 | 40 | CCN[C@H]1CC[C@@H](Nc2ncc(C)c(-c3cnc4ccc(-c5ccccc5)cn34)n2)CC1 [Compound 132, (1s,4s)-N^1-ethyl-N^4-(5-Methyl-4-(6-phenylimidazo[1,2-a]pyridin-3-yl)pyrimidin-2-yl)cyclohexane-1,4-diamine]
13 |  | 0.564 ± 0.047 |  |  |  | 1.14 | 28 | 61 | 57 | 13 | Cc1cnc(N[C@H]2CC[C@H](N3CCC3)CC2)nc1-c1cnc2ccc(-c3ccccc3)cn12 [Compound 135, N-((1r,4r)-4-(Azetidin-1-yl)cyclohexyl)-5-methyl-4-(6-phenylimidazo[1,2-a]pyridin-3-yl)pyrimidin-2-amine]
14 |  | 0.297 ± 0.001 |  |  |  | 2.77 | 48 | 22 | 59 | 36 | Cc1cnc(N[C@H]2CC[C@@H](N3CCC3)CC2)nc1-c1cnc2ccc(-c3ccccc3)cn12 [Compound 136, N-((1s,4s)-4-(Azetidin-1-yl)cyclohexyl)-5-methyl-4-(6-phenylimidazo[1,2-a]pyridin-3-yl)pyrimidin-2-amine]
15 |  |  |  |  | 0.099 | 0.014 | 0 | 3 | 7 |  | CN1CCC(N[C@H]2CC[C@H](Nc3ncc(F)c(-c4cnc5ccc(-c6ccccc6)cn45)n3)CC2)CC1 [Compound 160, (1r,4r)-N^1-(5-Fluoro-4-(6-phenylimidazo[1,2-a]pyridin-3-yl)pyrimidin-2-yl)-N^4-(1-methylpiperidin-4-yl) cyclohexane-1,4-diamine]
16 |  |  | 0.074 |  | 0.094 | 0.016 | 3 |  | 6 |  | Fc1cnc(N[C@H]2CC[C@H](NC3CCOCC3)CC2)nc1-c1cnc2ccc(-c3ccccc3)cn12 [Compound 161, (1r,4r)-N^1-(5-fluoro-4-(6-phenylimidazo[1,2-a]pyridin-3-yl)pyrimidin-2-yl)-N^4-(tetrahydro-2H-pyran-4-yl) cyclohexane-1,4-diamine]
